A short description of this data set: T release study in saline incubation media. In kind it is physicochemical. To be noted: saline incubation media, 2, 4 and 6 hours. The protocol: In order to compare the release rate results of hydrogel encapsulated T to pelleted T, larger gels had to be prepared as the T pellets which the hydrogels are intended to replace are 25 mg, where the E2 pellets are merely 6 mg. Thus, approximately 83 mg of hydrogel at 30% T loading and 1% HA were prepared. In order to achieve even or consistent crosslinking in these much larger hydrogel samples, Likarda's patented micromolds (shown in FIG. 21) were employed. After formation, the encapsulated T was removed from the molds and placed in tubes to be rotated for an hour. The encapsulated T hydrogels were then removed from the tubes and stored in Dulbecco's PBS buffer. The large hydrogel blocks encapsulating T were then tested and compared to 25 mg T pellets and micronized T powder.
The T powder was produced as a 2.5 mg/mL slurry in buffer to reach the near saturation point of T in the buffer. Samples of the T powder slurry were removed from only the top layer of the slurry fluid to avoid aspirating T particles in the slurry that may have precipitated at to the bottom. T pellets were collected directly from the vials in which they were stored. The 83 mg hydrogels containing 30% T were collected from Dulbecco's PBS buffer, rinsed, and dried. Each of the collected samples was then placed in a separate container of incubation media (saline in this instance) for the release studies. […]

Molecules are shown by their SMILES.

In the case of `C[C@]12CC[C@H]3[C@@H](CCC4=CC(=O)CC[C@@]43C)[C@@H]1CC[C@@H]2O` [T powder, Testosterone], the “approximate saturation level of T in saline” value is given as “about 1.5 mg/L”.

(Values after patent US20250319034A1, “MICROSPHERE PRODUCTION METHOD” (VITALTE LIFESCIENCES INC., priority 2024, published 2025).)
